Read-outs that look alike come from different tables or passages of the source.
Columns and labels:
MUTZ-3 [1] = assay: GARD Respiratory Prediction Signature (GRPS) SVM classification of the independent test dataset; details: for SVM decision value: MUTZ-3, 24 h stimulation at GARD input concentration, 389 GRPS transcripts
Protocol: (§1) The human acute myelomonocytic leukemia cell line MUTZ-3[68,69] was obtained from Leibniz-lnstitut DSMZ-Deutsche Sammlung von Mikroorganismen and Zellkulturen (DSMZ, Braunschweig, Germany). Maintenance of cells, chemical stimulation of MUTZ-3 and all subsequent isolation of mRNA and preparation of cDNA were performed as previously described. In short, a phenotypic control of MUTZ-3 was performed using flow cytometry prior to chemical stimulation to ensure cells were in an immature state. The following FITC-conjugated mouse monoclonal antibodies (mAbs) were used: CD1a (DakoCytomation, Glostrup, Denmark), CD34, CD86, HLA-DR, IgG1 (BD Biosciences, Franklin Lakes, N.J.). The following PE-conjugated mouse monoclonal antibodies were used: CD14 (DakoCytomation), CD54, CD80, IgG1 (BD Biosciences). Cell viability was determined using Propidium Iodide (BD Biosciences) staining. Samples were run on FACSCanto II instrument. Data was acquired using FACS Diva software (BD Biosciences) and analyzed using FCS Express V4 (De Novo Software, Los Angeles, Calif.). Gating was performed to exclude cell debris and non-viable cells based on forward- and side-scattering properties and quadrants established using isotype-controls. During chemical exposure, cells were seeded at 200.000 cells/ml in 24-well plates and exposed to chemical compound at the GARD input concentration. Stimulated cells were harvested after 24 h incubation at 37° C., 5% CO2 and RNA was isolated with TRIzol® reagent (Life Technologies, Carlsbad, Calif.) using standardized protocols provided by the manufacturer. In parallel, a control of the maturity state of the cells was performed by flow cytometric analysis of CD86. Preparation of cDNA and hybridization, washing and scanning of the Human Gene 1.0 ST Arrays (Affymetrix, Santa Clara, Calif., USA) was performed, according to standardized protocols provided by the manufacturer (Affymetrix).
Gene expression data obtained from the Human Gene 1.0 ST Arrays were normalized using the Single-Channel array normalization (SCAN) algorithm, and potential batch effects between different set of experiments were adjusted using the ComBat empirical bayes method. Normalizations and batch adjustments were performed in R statistical software using the open software Bioconductor v2.14 [73] with the additional software packages SCAN.UPC [70] and sva . Normalized data was imported into Qlucore Omics Explorer 3.0 (Qlucore AB, Lund, Sweden) and visualized using Principal Component Analysis (PCA). Predictors were selected from a one-way ANOVA p-value filtration, using false discovery rate (FDR) to adjust for multiple hypothesis testing, comparing respiratory sensitizers and non-respiratory sensitizers. […] The Backward Elimination algorithm was modified to minimize the Kullback-Leibler error [53] rather than maximizing the Area Under the Receiver Operating Characteristic (AUC ROC), in order to enable signature optimization in cases where the AUC ROC reaches 1.0. […] The script for Backwards Elimination was programmed in R, with the additional package e1071 [78]. The method by which the predictive genomic biomarker signature was established was validated using cross-validation based on Support Vector Machines (SVM), based on a linear kernel, as described previously. In short, the training dataset was randomly divided into a new cross-validation training dataset comprising 70% of the stimulations, and a cross-validation test dataset comprising 30% of the stimulations. In addition, care was taken to maintain the same proportion between respiratory sensitizers and non-respiratory sensitizers as in the complete training dataset. A new predictive genomic biomarker signature was identified from the cross-validation training dataset using one-way ANOVA p-value filtration as described above.

MUTZ-3 [2] = assay: Chemical cytotoxicity, Rv90 (90% relative viability), propidium iodide staining
Source text: A panel of 32 reference chemicals comprising a selection of 10 well characterized respiratory sensitizers and 22 non-respiratory sensitizers, collectively termed the training dataset, were used for cell stimulations in order to establish the predictive genomic biomarker signature. […] Additionally, a panel of 25 chemicals, including 6 respiratory sensitizers and 19 non-respiratory sensitizers, collectively termed the independent test dataset, were used for cell stimulations in order to form an independent testset for validation of the identified predictive genomic biomarker signature. The independent training dataset comprised both control chemicals, included during the training of the model, as well as chemicals previously unseen during training of the model. […] All chemicals were purchased from Sigma-Aldrich (St. Louis, Mo., USA). Chemicals were dissolved and diluted into GARD input concentration in either water or DMSO prior to stimulation of cells. For chemicals dissolved in DMSO, the in-well concentration of DMSO was 0.1%. Monitoring of chemical cytotoxicity and establishment of GARD input concentration for each chemical compound was performed as previously described. […] Toxic compounds were used at a concentration yielding 90% relative viability (Rv90). The criterion that was first met determined the GARD input concentration for each compound.
as §1

CD86 = CD86 expression of MUTZ-3 cells following chemical stimulation (flow cytometry); format: cell-based, human; details: MUTZ-3, 24 h stimulation, compared with vehicle/unstimulated cells, student's t-test p<0.05
Protocol: CD86 expression of MUTZ-3 cells following chemical stimulations. […] Statistical significance was determined by student's t-test, comparing each stimulation with its corresponding vehicle, with p<0.05 indicated by *.
Maintenance of cells, chemical stimulation of MUTZ-3 and all subsequent isolation of mRNA and preparation of cDNA were performed as previously described [41,42]. In short, a phenotypic control of MUTZ-3 was performed using flow cytometry prior to chemical stimulation to ensure cells were in an immature state. The following FITC-conjugated mouse monoclonal antibodies (mAbs) were used: CD1a (DakoCytomation, Glostrup, Denmark), CD34, CD86, HLA-DR, IgG1 (BD Biosciences, Franklin Lakes, N.J.). The following PE-conjugated mouse monoclonal antibodies were used: CD14 (DakoCytomation), CD54, CD80, IgG1 (BD Biosciences). Cell viability was determined using Propidium Iodide (BD Biosciences) staining. Samples were run on FACSCanto II instrument. Data was acquired using FACS Diva software (BD Biosciences) and analyzed using FCS Express V4 (De Novo Software, Los Angeles, Calif.). Gating was performed to exclude cell debris and non-viable cells based on forward- and side-scattering properties and quadrants established using isotype-controls. During chemical exposure, cells were seeded at 200.000 cells/ml in 24-well plates and exposed to chemical compound at the GARD input concentration. Stimulated cells were harvested after 24 h incubation at 37° C., 5% CO2 and RNA was isolated with TRIzol® reagent (Life Technologies, Carlsbad, Calif.) using standardized protocols provided by the manufacturer. In parallel, a control of the maturity state of the cells was performed by flow cytometric analysis of CD86.
Prior to chemical challenge, cells were quality controlled by measuring the cellular expression of common myeloid and dendritic cell markers using flow cytometry. These markers included CD1a, CD14, CD34, CD54, CD80, CD86 and HLA-DR.

[3] = Max solubility of chemicals for establishing the GARD input concentration; details: reference compounds used during assay development (Table 1)
[4] = respiratory sensitizer if any replicate stimulation has SVM decision value >0
[5] = concentration yielding 90% relative viability, MUTZ-3, Table 1

| Compound | SVM decision value (MUTZ-3 [1]; replicate 1) | SVM decision value (MUTZ-3 [1]; replicate 2) | SVM decision value (MUTZ-3 [1]; replicate 3) | Classification Pos if 1 sample >0 (MUTZ-3 [1]; [4]) | other results |
| --- | --- | --- | --- | --- | --- |
| CCCCO [1-Butanol] | −0.32 | 0.12 | – | – | Classification Pos if 1 sample >0 (MUTZ-3 [1]): Sensitizer (key: Sensitizer: classified as a respiratory sensitizer if any of replicate stimulations have a SVM decision value > 0) |
| O=[N+]([O-])c1ccc(Cl)c([N+](=O)[O-])c1 [2,4-dinitrochlorobenzene] | −1.66 | −1.18 | −1.90 | Non-sensitizer | Rv90 (MUTZ-3 [2]; concentration yielding 90% relative viability, MUTZ-3, Table 2): 4 µM |
| Nc1ccccc1O [2-Aminophenol] | – | – | – | – | Rv90 (MUTZ-3 [2]; [5]): 100 µM; Chemically induced up-regulation of CD86 (CD86): up-regulation of CD86 was also observed |
| C=CC(=O)OCCO [2-Hydroxyethyl acrylate] | – | – | – | – | Rv90 (MUTZ-3 [2]; [5]): 100 µM |
| Sc1nc2ccccc2s1 [2-mercaptobenzothiazole] | −0.44 | −0.43 | −0.57 | – | – |
| [Cl][Pt-2]([Cl])([Cl])([Cl])([Cl])[Cl].[NH4+].[NH4+] [Ammonium hexachloroplatinate] | – | – | – | – | Chemically induced up-regulation of CD86 (CD86): statistically significant; Max solubility [3]: 35 µM |
| O=Cc1ccccc1 [Benzaldehyde] | −0.79 | −0.87 | −0.70 | Non-sensitizer | – |
| Cc1ccc(S(=O)(=O)[N-]Cl)cc1.[Na+] [Chloramine T] | 0.52 | 0.59 | – | Sensitizer (classified as a respiratory sensitizer if any of replicate stimulations have a SVM decision value > 0) | – |
| Clc1ccccc1 [Chlorobenzene] | −1.03 | −0.76 | −1.15 | Sensitizer (classified as a respiratory sensitizer if any of replicate stimulations have a SVM decision value > 0) | SVM decision value (MUTZ-3 [1]; replicate 4): 0.24; SVM decision value (MUTZ-3 [1]; replicate 5): 0.06 |
| OCC=Cc1ccccc1 [Cinnamyl alcohol] | −0.57 | −1.44 | −1.26 | – | Classification Pos if 1 sample >0 (MUTZ-3 [1]): Non-sensitizer |
| CCOC(=O)c1ccccc1C(=O)OCC [Diethyl phthalate] | −1.37 | −0.96 | −1.22 | Non-sensitizer | – |
| C=CCc1ccc(O)c(OC)c1 [Eugenol] | −1.67 | −1.53 | −1.51 | – | Rv90 (MUTZ-3 [2]; human): 300 µM; Classification Pos if 1 sample >0 (MUTZ-3 [1]): Non-sensitizer |
| C=O [Formaldehyde] | – | – | – | – | Rv90 (MUTZ-3 [2]; human): 80 µM |
| O=CCCCC=O [Glutaraldehyde] | – | – | – | – | Rv90 (MUTZ-3 [2]; human): 10 µM; Chemically induced up-regulation of CD86 (CD86): statistically significant |

Source: US20170285010A1, “Analytical Methods and Arrays for Use in the Same” (SENZAGEN AB, priority 2014, published 2017)
